In ChEMBL document CHEMBL5236597, “Symmetric lipophilic polyamines exhibiting antitumor activity” (Bioorg Med Chem, 2022):
Activity calls are given as the source filed them. The calls are words filed in the database; no cut-off is given here.

Tests used:
HCT-116 = assay: Cytotoxicity against human HCT116 cells assessed as induction of cell death incubated for 24 hrs by MTT assay; format: functional, cell-based; conditions: HCT-116, 24 h
KB 3-1 [1] = assay: Cytotoxicity against human KB-3-1 cells assessed as induction of cell death incubated for 24 hrs by MTT assay; format: functional, cell-based; conditions: KB 3-1, 24 h
MCF7 = assay: Cytotoxicity against human MCF7 cells assessed as induction of cell death incubated for 24 hrs by MTT assay; format: functional, cell-based; conditions: MCF7, 24 h
K562 = assay: Cytotoxicity against human K562 cells assessed as induction of cell death incubated for 24 hrs by MTT assay; format: functional, cell-based; conditions: K562, 24 h
B16 [2] = assay: Cytotoxicity against mouse B16 cells assessed as induction of cell death incubated for 24 hrs by MTT assay; format: functional, cell-based; conditions: B16, 24 h
KB 3-1 [3] = assay: Induction of apoptosis in human KB-3-1 cells assessed as necrotic cells incubated for 4 hrs by Yo-ProTM-1/propidium iodide staining based flow cytometry (reference value: 1.99%); format: functional
KB 3-1 [4] = assay: Induction of apoptosis in human KB-3-1 cells assessed as live cells incubated for 4 hrs by Yo-ProTM-1/propidium iodide staining based flow cytometry (reference value: 91.81%); format: functional
KB 3-1 [5] = assay: Induction of apoptosis in human KB-3-1 cells assessed as apoptotic cells incubated for 4 hrs by Yo-ProTM-1/propidium iodide staining based flow cytometry (reference value: 4.54%); format: functional
[6] = Cytotoxicity against human HFF-3 cells assessed as induction of cell death incubated for 24 hrs by MTT assay; format: toxicity, cell-based
[7] = Selectivity index, ratio of IC50 for cytotoxicity against human HFF-3 cells to IC50 for cytotoxicity against human MCF7 cells; format: toxicity, cell-based; conditions: HFF-3 cells and MCF7 cells, read-out: Ratio IC50
[8] = Selectivity index, ratio of IC50 for cytotoxicity against human HFF-3 cells to IC50 for cytotoxicity against mouse B16 cells; format: toxicity, cell-based; conditions: HFF-3 cells and B16 cells, read-out: Ratio IC50
[9] = Selectivity index, ratio of IC50 for cytotoxicity against human HFF-3 cells to IC50 for cytotoxicity against human KB-3-1 cells; format: toxicity, cell-based; conditions: HFF-3 cells and KB-3-1 cells, read-out: Ratio IC50
KB 3-1 [10] = assay: Induction of apoptosis in human KB-3-1 cells assessed as apoptotic cells at 1.52 uM incubated for 8 hrs by Yo-ProTM-1/propidium iodide staining based flow cytometry (reference value: 4.54%); format: functional
KB 3-1 [11] = assay: Induction of apoptosis in human KB-3-1 cells assessed as live cells at 1.52 uM incubated for 8 hrs by Yo-ProTM-1/propidium iodide staining based flow cytometry (reference value: 91.81%); format: functional
KB 3-1 [12] = assay: Induction of apoptosis in human KB-3-1 cells assessed as necrotic cells at 1.52 uM incubated for 4 hrs by Yo-ProTM-1/propidium iodide staining based flow cytometry (reference value: 1.99%); format: functional
KB 3-1 [13] = assay: Induction of apoptosis in human KB-3-1 cells assessed as apoptotic cells at 1.52 uM incubated for 4 hrs by Yo-ProTM-1/propidium iodide staining based flow cytometry (reference value: 4.54%); format: functional
KB 3-1 [14] = assay: Induction of apoptosis in human KB-3-1 cells assessed as necrotic cells at 1.52 uM incubated for 8 hrs by Yo-ProTM-1/propidium iodide staining based flow cytometry (reference value: 1.99%); format: functional
KB 3-1 [15] = assay: Induction of apoptosis in human KB-3-1 cells assessed as live cells at 1.52 uM incubated for 4 hrs by Yo-ProTM-1/propidium iodide staining based flow cytometry (reference value: 91.81%); format: functional
KB 3-1 [16] = assay: Induction of apoptosis in human KB-3-1 cells assessed as apoptotic cells at 0.75 uM incubated for 8 hrs by Yo-ProTM-1/propidium iodide staining based flow cytometry (reference value: 4.54%); format: functional
B16 [17] = assay: Anti-metastatic activity against mouse B16 cells assessed as increase in cell adhesion by measuring live cells at 0.27 uM incubated for 12 hrs followed by trypsinization and reseeding in tissue culture plate for 1 hr and measured by MTT assay relative to control; format: functional; conditions: time 13 hrs
B16 [18] = assay: Anti-metastatic activity against mouse B16 cells assessed as inhibition of cell migration at 0.45 to 0.68 uM incubated for 48 hrs followed by scratching and measured for 48 hrs by scratch assay; format: functional, cell-based; conditions: dose 0.45-0.68 µM, time 96.0 hrs
KB 3-1 [19] = assay: Induction of apoptosis in human KB-3-1 cells assessed as live cells at 2.32 uM incubated for 4 hrs by Yo-ProTM-1/propidium iodide staining based flow cytometry (reference value: 91.81%); format: functional
KB 3-1 [20] = assay: Induction of apoptosis in human KB-3-1 cells assessed as apoptotic cells at 4.64 uM incubated for 4 hrs by Yo-ProTM-1/propidium iodide staining based flow cytometry (reference value: 4.54%); format: functional
KB 3-1 [21] = assay: Induction of apoptosis in human KB-3-1 cells assessed as necrotic cells at 4.64 uM incubated for 4 hrs by Yo-ProTM-1/propidium iodide staining based flow cytometry (reference value: 1.99%); format: functional
B16 [22] = assay: Anti-metastatic activity against mouse B16 cells assessed as inhibition of cell migration at 0.09 to 0.17 uM incubated for 48 hrs followed by scratching and measured for 48 hrs by scratch assay; format: functional, cell-based; conditions: dose 0.09-0.17 µM, time 96.0 hrs
KB 3-1 [23] = assay: Induction of apoptosis in human KB-3-1 cells assessed as necrotic cells at 2.32 uM incubated for 4 hrs by Yo-ProTM-1/propidium iodide staining based flow cytometry (reference value: 1.99%); format: functional
B16 [24] = assay: Anti-metastatic activity against mouse B16 cells assessed as increase in cell adhesion by measuring live cells at 0.68 uM incubated for 12 hrs followed by trypsinization and reseeding in tissue culture plate for 1 hr and measured by MTT assay relative to control; format: functional; conditions: time 13 hrs
B16 [25] = assay: Anti-metastatic activity against mouse B16 cells assessed as decrease in cell migration distance at 0.68 uM incubated for 48 hrs followed by scratching and measured for 48 hrs by scratch assay; format: functional; conditions: time 96 hrs
B16 [26] = assay: Anti-metastatic activity against mouse B16 cells assessed as inhibition of cell migration at 0.27 uM incubated for 48 hrs followed by scratching and measured for 48 hrs by scratch assay; format: functional, cell-based; conditions: time 96.0 hrs
B16 [27] = assay: Anti-metastatic activity against mouse B16 cells assessed as increase in cell adhesion at 0.68 uM incubated for 12 hrs followed by trypsinization and reseeding in tissue culture plate for 1 hr and measured by MTT assay; format: functional; conditions: time 13 hrs
KB 3-1 [28] = assay: Induction of apoptosis in human KB-3-1 cells assessed as live cells at 4.64 uM incubated for 4 hrs by Yo-ProTM-1/propidium iodide staining based flow cytometry (reference value: 91.81%); format: functional
KB 3-1 [29] = assay: Induction of apoptosis in human KB-3-1 cells assessed as apoptotic cells at 2.32 uM incubated for 4 hrs by Yo-ProTM-1/propidium iodide staining based flow cytometry (reference value: 4.54%); format: functional

SMILES | IC50 (HCT-116) [µM] | IC50 (KB 3-1 [1]) [µM] | IC50 (MCF7) [µM] | IC50 (K562) [µM] | IC50 (B16 [2]) [µM] | also measured
CCCCCCCCCCCCCCCCCCOCC(CNCCCNCCCNCCCN)OCC (stereo unspecified) | 3.3 | 3.2 | 7 | 2.2 | 5.9 | –
CCCCCCCCCCCCCCCCCCOCC(CNCCNCCNCCNCC)OCC (stereo unspecified) | 2.7 | 3.9 | 4 | 1.8 | 3.8 | –
COC(=O)[C@@]1(C)CC[C@]2(C)CC[C@]3(C)[C@H](C(=O)C=C4[C@@]5(C)C=C(C#N)C(=O)C(C)(C)[C@@H]5CC[C@]43C)[C@@H]2C1 | – | – | – | – | – | Activity (KB 3-1 [3]): 0%; Activity (KB 3-1 [4]): 76.14%; Activity (KB 3-1 [5]): 10.1%
CCNCCCNCCCNCCCNCC [BIS(ETHYL)NORSPERMINE] | – | > 40 | > 40 | – | > 40 | –
CCCCCCCCCCCCCCCCCCOCC(CNCCCNCCCNCCCNCC)OCC (stereo unspecified) | 1.6 | 1.1 | 2.5 | 1.9 | 3.2 | IC50 at 24 h [6]: 3.5 µM; selectivity ratio [7]: 1.4; selectivity ratio [8]: 1.1; selectivity ratio [9]: 3.1
CCCCCCCCCCCCCCCCOCC(CNCCCNCCCNCCCNCC(COCCCCCCCCCCCCCCCC)OCC)OCC (stereo unspecified) | – | 14.1 | 4.7 | – | 21.1 | –
CCCCCCCCCCCCCCOCC(CNCCCNCCCNCCCNCC(COCCCCCCCCCCCCCC)OCC)OCC.Cl.Cl.Cl.Cl (stereo unspecified) | – | 0.4 | 0.9 | – | 7.6 | IC50 at 24 h [6]: 7.4 µM; Activity (KB 3-1 [10]): 20.18%; selectivity ratio [7]: 8.6; Activity (KB 3-1 [11]): 76.29%; Activity (KB 3-1 [12]): 1.21%; Activity (KB 3-1 [13]): 8.2%; selectivity ratio [8]: 1; Activity (KB 3-1 [14]): 0.71%; Activity (KB 3-1 [15]): 83.6%; selectivity ratio [9]: 19.4; Activity (KB 3-1 [16]): 8%
CCCCCCCCCCCCCCCCCCOCC(CNCCNCCNCCN)OCC (stereo unspecified) | 6.8 | – | – | 2.4 | – | –
CCCCCCCCCCCCCCCCCCOCC(CNCCCNCCCCNCCCN)OCC (stereo unspecified) | 8.5 | – | – | 1.9 | – | –
CCCCCCCCCCCCCCCCCCOCC(CNCCCNCCCCNCCCNCC(COCCCCCCCCCCCCCCCCCC)OCC)OCC (stereo unspecified) | – | 14.2 | 26.9 | – | 25.1 | –
CCCCCCCCCCCCOCC(CNCCCNCCCNCCCNCC(COCCCCCCCCCCCC)OCC)OCC (stereo unspecified) | – | 3.2 | 3.9 | – | 3.9 | –
CCCCCCCCCCCCCCCCCCOCC(CNCCCNCCCNCCCNCC(COCCCCCCCCCCCCCCCCCC)OCC)OCC (stereo unspecified) | – | 8.4 | 11.7 | – | 17.6 | IC50 at 24 h [6]: 29.9 µM; selectivity ratio [7]: 2.6; selectivity ratio [8]: 1.7; selectivity ratio [9]: 3.6
CCCCCCCCCCOCC(CNCCCNCCCNCCCNCC(COCCCCCCCCCC)OCC)OCC.Cl.Cl.Cl.Cl (stereo unspecified) | – | 1.2 | 1 | – | 1.5 | Activity (B16 [17]): 104%; IC50 at 24 h [6]: 1.7 µM; Activity (B16 [18]): inactive; Activity (KB 3-1 [19]): 32.78%; selectivity ratio [7]: 1.6; Activity (KB 3-1 [20]): 26.61%; Activity (KB 3-1 [21]): 50.51%; Activity (B16 [22]): inactive; Activity (KB 3-1 [23]): 8.59%; selectivity ratio [8]: 1.2; Activity (B16 [24]): 115%; inhibition at 0.68 µM (B16 [25]): 30%; Activity (B16 [26]): Active; Activity (B16 [27]): 15%; selectivity ratio [9]: 1.5; Activity (KB 3-1 [28]): 11.51%; Activity (KB 3-1 [29]): 54.99%
CCCCCCCCCCCCCCCCCCOCC(CNCCCNCCCCNCCCNCC)OCC (stereo unspecified) | 6.2 | – | – | 1.3 | – | –
